# Assay results taken from article PMC5729429, “Gimatecan exerts potent antitumor activity against gastric cancer in vitro and in vivo via AKT and MAPK signaling pathways” (Journal of Translational Medicine, 2017).
# Where a name gives a salt, the structure may show the parent alone.
# System: SNU-1 cells
# Test: Annexin V-PE/7-AAD apoptosis assay (flow cytometry), SNU-1
# Type: cell-based, human
# Conditions: 24 h
# Protocol: Apoptosis was measured by staining with phycoerythrin (PE)-annexin V and 7-amino-actinomycin (7-AAD) (BD Biosciences, Erembodegem, Belgium) for 15 min at room temperature in the dark, followed by flow cytometry (BD Biosciences) within 1 h. Apoptosis was analyzed with FlowJo 7.6 software (FlowJo, LLC, Ashland, Oregon).
# Cells were treated with gimatecan (0–1 µM) and irinotecan (0–1 µM) for 24 h and stained with Annexin V-PE/7-AAD. Sums of percentages of early apoptosis (Q3) and late apoptosis (Q2) were calculated as the total apoptosis ratios. c, d Pro- and anti-apoptotic proteins including Bcl-2, Bak, PARP and cleaved PARP were assessed by western-blotting in SNU-1 and NCI-N87 cells. Western-blotting bands were quantified and normalized by ImageJ. […] They are left out because no substance is present, and they are also barely readable.
Structure (SMILES),"proportion of apoptotic cells (SNU-1, 1000 nM)","apoptosis induced compared with controls (0–1 µM, stated generally for the GC cell lines tested)"
"CC[C@@]1(O)C(=O)OCc2c1cc1n(c2=O)Cc2c-1nc1ccccc1c2/C=N/OC(C)(C)C [Gimatecan, 7-t-butoxyiminomethylcamptothecin]",14.38 ± 2.11%,
"CCc1c2c(nc3ccc(OC(=O)N4CCC(N5CCCCC5)CC4)cc13)-c1cc3c(c(=O)n1C2)COC(=O)[C@]3(O)CC [Irinotecan, irinotecan hydrochloride]",,not obvious
